These are literature values, as cited in US20070032555A1, “Novel aryloxyphenyl-propanamines” (priority 2005, published 2007).

Data set [1] deals with 6-hydroxydopamine-lesion rats.
For data set [2] the following is noted: humans, FDA Talk Paper T04-60.

As to `CNCC[C@@H](Oc1ccccc1C)c1ccccc1` [Compound 1, (R)-N-methyl-3-phenyl-3-(o-tolyloxy)propan-1-amine], the half life (CYP2D6 poor metabolisers (PM)) is listed as 62 h. Moreover, the mean half life (healthy volunteers, CYP2D6 extensive metabolizers (EM)) was 18 h. The “increase of total exposure, measured as AUC0-τ” value (poor metabolisers (PM) versus extensive metabolizers (EM)) was 8-10 fold. In addition, the motor hyperactivity result in data set [1] is reported as “reductions in their motor hyperactivity”. In data set [2], the hepatotoxicity result is “rare but very severe hepatotoxicity”.
